Measured values published in patent US8871435B2, “Methods and compositions for identifying agents that inhibit an NS4B-mediated neoplastic cellular phenotype of HCV infected cells” (The Board of Trustees of the Leland Stanford Junior …, priority 2007, dated 2014).

Target: NS4B-GFP (Hepatitis C virus genotype 1b, UniProt Q9WMX2)
Assay type: binding, hepatitis C virus (HCV)

Sequence of NS4B-GFP (Q9WMX2 1712-1972): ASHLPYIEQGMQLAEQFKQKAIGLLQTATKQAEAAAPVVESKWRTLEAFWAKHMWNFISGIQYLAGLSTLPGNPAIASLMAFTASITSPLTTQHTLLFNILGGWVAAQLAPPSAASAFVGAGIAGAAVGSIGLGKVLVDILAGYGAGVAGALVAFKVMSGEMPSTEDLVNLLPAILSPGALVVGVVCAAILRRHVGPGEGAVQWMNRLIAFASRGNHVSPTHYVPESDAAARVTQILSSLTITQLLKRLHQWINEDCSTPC

SMILES | labeling (binding) of NS4B-GFP by 32P-labeled photoactivatable nucleotide analog | binding of labeled GTP in the presence of cold competitor nucleotide
[N-]=[N+]=Nc1ccc(NP(=O)(O)OP(=O)(O)OP(=O)(O)OC[C@H]2O[C@@H](n3cnc4c(N)ncnc43)[C@H](O)[C@@H]2O)cc1 [ATP, ATP-γ-4-azidoanilide] | significantly less efficient than GTP binding | –
[N-]=[N+]=Nc1ccc(NP(=O)(O)OP(=O)(O)OP(=O)(O)OC[C@H]2O[C@@H](n3cnc4c(=O)[nH]c(N)nc43)[C@H](O)[C@@H]2O)cc1 [GTP, GTP-γ-4-azidoanilide] | specifically labeled | –
Nc1nc2c(ncn2[C@@H]2O[C@H](COP(=O)(O)OP(=O)(O)OP(O)(O)=S)[C@@H](O)[C@H]2O)c(=O)[nH]1 [GTPγS] | – | progressively decreased
